The text below walks through data of patent publication US20020022052A1, “Transdermal delivery system” (priority 2000, published 2002).

For data set [1] the following is noted: ascorbic acid content above 14% by weight, water based; cited from earlier work.
A short description of data set [2]: Skin tolerability trials of ascorbic acid admixtures. Conditions: water free carriers, ascorbic acid levels as high as 35%. The text has this: In addition, acidity is a function of the ionic dissociation of a material in solution. In most circumstances water is the primary dissociation medium and so solutions free of water generally have lower acidity. […] While it is impossible to totally exclude water, as there are minute traces in the ingredients utilized as carriers, acidity is kept to a minimum in what are essentially water free admixtures.

For data set [3] the following is noted: bovine. As to the method:
All final tests were carried out with HPLC analysis.

Data set [4] in a line: Maximum achieved massage induced skin load (400 g vibrator, 10 minutes). Conditions: particle size 1 micron ± 0.25 um.
Excerpt: To counter this problem, Franz Diffusion Cells using the widely accepted Perfused Bovine Udder Skin model were fitted with vibrators which held a soft plastic head against the test skin in a massaging action. The vibrator was allowed to move randomly over the test sample using its own mass to provide the pressure. The total weight of a vibrator and head was 180 grams and the massage heads were 1.2 cm in diameter. The vibrators provided a massage pressure well below that which would be applied by a person finger massaging cream into the skin.
Testing was done by preparing sample creams as discussed below. Each sample was weighed and spread on the test skin. At this point the sample was subject to five minutes of the massage action described and then the remaining cream was removed and skin surface wiped dry. The weight of the absorbed amount was determined by weighing the removed material. The cell was not capped, the skin being left exposed to the air.
Tests were carried out to determine the maximum of both admixture and dry powder that could be induced into the stratum corneum. The vibrator weight was increased to 400 grams and vibration time to 10 minutes. Zinc gluconate (being of particular interest) was used as the active for these tests.

Take `O=C1O[C@H]([C@@H](O)CO)C(O)=C1O` [ascorbic acid]: the skin reactions result in data set [1] was “burning, stinging and other skin reactions”. In data set [2], the “subjective discomfort compared with 12% water based admixture” value is on record as “less discomfort” and the tolerability result was “well tolerated”. In addition, the “particle size at which absorption began to be demonstrated” value in data set [3] is “below 7 microns”.

In the case of zinc gluconate, the Maximum loading in data set [4] (carrier Eutanol G) is reported as 1.2 micrograms/cm^2; in data set [4] (carrier Nil (dry powder)) it was 0.6 micrograms/cm^2.
